# Laboratory results from patent publication US20250134870A1, “PATHWAY MODULATOR, PHARMACEUTICAL COMPOSITION HAVING SAME, USE THEREOF, AND THERAPEUTIC METHOD USING SAME” (Jiangsu Yahong Meditech Co., Ltd., priority 2021, published 2025).
# Key:
# [1] = test system: dextran sulfate sodium (DSS)-induced colitis; experiment: DSS-induced colitis in mice: body weight, DAI score, colon density (Examples 1, 3); type: in vivo, C57BL/6J mice
# Protocol: 8-10 week old female C57BL/6J mice purchased from Charles River Laboratories were used. The mice were housed in a room at constant temperature (20+2° C.) (5 mice per cage) with a 12-hour light-dark cycle. All protocols were approved by the Institutional Animal Care and Use Committee of WuXi AppTec. These mice were adapted to the housing conditions at the animal experiment center of WuXi AppTec for at least three days prior to the experiment. […] At the experimental endpoint (see hereinafter), mice were euthanized and endpoint samples were obtained. Mice in the normal group were not given 3% DSS aqueous solution to induce colitis and were free to drink blank water. […] The animal body weight and DAI score were assessed under double-blind conditions, that is, the researchers collected the body weight data of mice and observed and scored the stool characteristics and blood stools every day, without knowing the group and dosing regimen. The DAI score was the sum of the weight loss score, stool score and bleeding score. […] The data were analyzed by analysis of variance, specifically by using the following process: using Graph Pad Prism 6.0 software to carry out post-hoc Dunnett's multiple comparison test. […] Data were expressed as mean±S.E.M. The experimental endpoint was 24 hours after administration on Day 8 for the positive drug control group and the Test group 1 #to Test group 7 #of Example 1; the experimental endpoint of the normal group and the solvent group was the same as that of the positive drug control group and Test group 1 #to Test group 7 #.
# [2] = test system: dextran sulfate sodium (DSS)-induced colitis; experiment: DSS-induced colitis in mice, 3.1% DSS: body weight change and DAI (Example 11); type: in vivo, C57BL/6 mice; conditions: 50 mg/kg, QD
# From the text: The experimental mice were housed in an SPF grade animal room for three days for adaptation, and randomly divided into 7 groups (6 model groups and 1 control group) of 10 mice in each group. Dosing of mice started on Day 0 and ended on Day 7.
# The mouse enteritis model of this Example was established by DSS induction: mice in the model group were provided with a 3.1% DSS (dextran sulfate sodium, molecular weight 36,000-50,000) aqueous solution from Day 0 to Day 7, and the DSS aqueous solution was replaced with freshly prepared solution every day to prevent degradation. Mice in the normal control group were provided with normal water. The experimental period was 9 days, and the mice were euthanized and samples were collected at the experimental endpoint.
# The DAI score was assessed daily. The DAI score consisted of 3 parts: body weight change, stool characteristics, and hematochezia (or occult blood) score, and the specific scoring criteria were as shown in Table 49. The DAI scoring of all mice was done by the same staff throughout the experiment.
# Mice were euthanized at the experimental endpoint. The colon of mice was dissected, and photograph was taken, the length was measured, and the contents were removed before weighing.
# The data were expressed as mean±standard error (X±s). Body weight change and disease activity score were statistically analyzed by two-way ANOVA and comparison between groups were performed by Dunnett's test. Other data were statistically analyzed by one-way ANOVA and comparison between groups were performed by Dunnett's test. All analyses were performed using GraphPad Prism software. * P<0.05, ** P<0.01, *** P<0.005, **** P<0.0001 vs. solvent group.
# [3] = test system: collagen-induced arthritis (CIA); experiment: Collagen-induced arthritis (CIA) in mice: body weight, clinical score, AUC, incidence (Example 9); type: in vivo, DBA/1 mice; conditions: 50 mg/kg PO QD, 2 weeks
# Protocol: DBA/1 mice were anesthetized with isoflurane and injected subcutaneously with 50 μL of prepared collagen emulsion (containing 200 μg of CII) in the tail. The day of the first immunization was recorded as Day 0, and the subsequent days were marked sequentially. On Day 21, mice were injected with a same volume of collagen emulsion in the tail.
# Dosing lasted for 14 consecutive days. Compounds were prepared every 3 days and stored at 4° C.
# Since Day 28, mice were weighed three times a week and clinical scores were recorded until the end of the experiment.
# Clinical score: scores were given according to different degrees of lesions (redness and swelling, arthrentasis) on a scale of 0-4 points, the highest score was 4 points for each limb and 16 points for each animal.
# Experimental data were represented as mean±standard error. Body weight and clinical score were analyzed by two-way ANOVA, and difference with p<0.05 was considered as significant.
# [4] = test system: bleomycin-induced skin fibrosis; experiment: Bleomycin-induced skin fibrosis in mice: skin histopathology (dermal thickness, capillary density score, inflammatory cell infiltration score); type: in vivo, male C57BL/6 mice
# Protocol: The skin tissue of the lesioned skin was subjected to dehydration, embedding and sectioning according to the pathology SOP, and the tissue was stained by HE and Masson staining. Histopathological analysis was performed according to the following methods:
# Masson-stained sections were panoramically scanned by using Nanozomer S210 and the scanned images were subjected to quantitative analysis using Visiopharm VIS6.0 software. The degree of fibrosis was currently represented by the dermal thickness after Masson staining.
# The fields of observation was selected in the dermis layer of the lesioned area (the number of fields selected was determined according to the size of the lesioned area) and scored according to the area occupied by capillaries in the area: • 0: No capillary formed • 1: The proportion of capillaries formed was less than 25%; • 2: The proportion of capillaries formed was 25-50%; • 3: The proportion of capillaries formed was 50-75%; • 4: The proportion of capillaries formed was greater than 75%. 3.8.3 Inflammatory cell infiltration score of dermis layer
# The fields of observation was selected in the dermis layer of the lesioned area (the number of fields selected was determined according to the size of the lesioned area) and scored according to the degree of inflammatory cell infiltration: • 0: No inflammatory cell infiltration: • 1: A small amount of focal inflammatory cell infiltration; • 2: Scattered diffuse inflammatory cell infiltration: • 3: A large amount of diffuse inflammatory cell infiltration; • 4: A large amount of agglomerated inflammatory cell infiltration.
# congestive heart failure = conditions: cited from earlier work
# [5] = 50 and 100 mg/kg PO QD, 28 days (Test groups 2#, 3#)
structure (smiles),measurement,setting,value
NCc1c[nH]c(=S)n1[C@H]1CCc2c(F)cc(F)cc2C1 [Nepicastat],"Body weight on Day 7, g",[1]; 30 mg/kg PO QD × 8 days,19.71 g
same,"Body weight on Day 8, g",[1]; 30 mg/kg PO QD × 8 days,18.88 g
same,"Body weight on Day 8/initial body weight, %",[1]; 30 mg/kg PO QD × 8 days,90.68%
same,DAI score on Day 8,[1]; 30 mg/kg PO QD × 8 days,5.30
same,severity of DSS-induced colitis and disease activity,"[1]; Nepicastat 30, Etamicastat 100, Zamicastat 100 mg/kg PO QD × 8 days (Test groups 1#, 4#, 7#) vs solvent group",ameliorated the severity of DSS-induced colitis and reduced disease activity
same,"symptoms caused by DSS-induced colitis (body weight loss, diarrhea, hematochezia)",[2],"effectively alleviated the symptoms of body weight loss, diarrhea and hematochezia"
same,DSS-induced body weight loss,[2]; vs solvent group,effectively alleviated DSS-induced body weight loss
same,disease activity score (DAI),[2]; vs solvent group,significantly lower than that in the solvent group
same,effect on collagen-induced arthritis in mice,[3],"had some known effects on collagen-induced arthritis in mice, but not as obvious as the positive control drug"
same,degree of fibrosis of the lesioned skin,"[4]; 100 mg/kg PO QD, 28 days (Test group 3#)",reduce the degree of fibrosis of the lesioned skin
same,effect to reduce dermal thickness,"[4]; 25, 50 and 100 mg/kg PO QD, 28 days","dose-dependent, and the higher the dose, the more obvious the result, but there was no significant difference compared with the model group"
same,inflammatory cell infiltration of the lesioned skin,[4]; [5],significantly reduce
same,subdermal capillary hyperplasia,[4]; [5],significantly reduce
same,effect in the treatment of heart failure,congestive heart failure; further clinical studies,no effect in the treatment of heart failure
same,tolerability,"congestive heart failure; patients, congestive heart failure",well tolerated in patients
